Among the data in PubChem BioAssay (NCI) are TGI and GI50 values, retold here.

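A five-concentration, 48-hour dose response in 96-well plates underlies each endpoint, interpolated linearly between surrounding concentrations. The concentration for 50% growth inhibition is given as GI50. At the TGI there is no net growth.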 Where only a bound is given, the exact number is not on record here.

The first assay has as its system SK-MEL-28 melanoma. Briefly: growth of human tumour cells (NCI), 48 h.
On to `CC1OC(n2cc(F)c(=O)[nH]c2=O)CCC1O` (centres undefined), for which the TGI is > 100 µM.

On to `O=C(NCCOCCOCCNc1cccc2c1C(=O)N(C1CCCNC1=O)C2=O)c1cc2c(o1)C(=O)c1ccccc1C2=O` (centres undefined), for which the GI50 was 2.31 µM and the TGI came to 4.61 µM.

In the case of `O=C(CN1CCOCC1)Nc1ccc(Cn2nnc3c2C(=O)c2nnn(Cc4ccc(NC(=O)CN5CCOCC5)cc4)c2C3=O)cc1`, the GI50 is 0.696 µM and the TGI amounted to 2.62 µM.

For the compound `O=C(O)Cn1ccc(=O)c2ccc([N+](=O)[O-])cc21`, the TGI is > 100 µM.

With `O=C(c1ccco1)c1nc2ccc(C(F)(F)F)cc2[n+]([O-])c1C(F)(F)F`, the GI50 was 23.5 µM and the TGI is > 100 µM.

Regarding `CCCCC/C(C=C(C#N)C#N)=C/c1ccccc1`, the GI50 was 2.86 µM and the TGI amounted to 8.57 µM.

The compound `CC1CCC2(C(=O)O)CCC3(C)C(=CCC4C5(C)CC(O)C(O)C(C)(CO)C5C(O)CC43C)C2C1C` (centres undefined) yielded a TGI of 69 µM.

Regarding `Cc1ccc(S(=O)(=O)N(CCOc2ccc(/C(N)=N/Cl)cc2)CCOc2ccc(/C(N)=N\Cl)cc2)cc1`, the GI50 was 25.7 µM and the TGI was > 100 µM.

Turning to `COc1ccc(C2=NN(C(=O)c3cc(OC)c(OC)c(OC)c3)C(c3ccc(C#N)cc3)C2)cc1OC` (centres undefined), the GI50 was 1.3 µM and the TGI is > 55 µM.

The test system of the next assay is UACC-257 melanoma. Description: growth of human tumour cells (NCI), 48 h.
Regarding `Cc1ccc(CS/C(=C\c2ccc([N+](=O)[O-])cc2)C(=O)c2ccc(F)cc2)cc1`, the GI50 is 5.61 µM and the TGI is 19.9 µM.

As to `CC[CH2][Pb]([CH2]CC)([CH2]CC)[O]C(=O)C(F)(F)F`, the GI50 was 0.154 µM and the TGI is 0.455 µM.

`CCOC(=O)CCc1cc(=O)oc2cc(O)cc(O)c12`: the TGI was > 100 µM.

Take `CNC(=O)OCc1c(COC(=O)NC)c(-c2ccc(Cl)c(Cl)c2)n2c1SCC2`: the TGI was found to be 31.7 µM.

With `COc1cc(OC)cc(-c2ccc(-c3ccc(C(=N)N)o3)o2)c1`, the GI50 is 2.41 µM and the TGI came to 5.41 µM.

As for `C[C@]12CC[C@H](O)CC1=CC[C@@H]1[C@@H]2CC[C@]2(C)C(c3cccnc3)=CC[C@@H]12`, the GI50 is > 100 µM and the TGI is > 100 µM.

For the compound `Cc1ccc2c(c1)C(=O)/C(=C/c1ncc([N+](=O)[O-])n1C)O2`, the GI50 was 1.98 µM and the TGI is 5.65 µM.

On to `CC1OC(n2cc(F)c(=O)[nH]c2=O)CCC1O` (centres undefined), for which the TGI was > 100 µM.

Regarding `O=C(NCCOCCOCCNc1cccc2c1C(=O)N(C1CCCNC1=O)C2=O)c1cc2c(o1)C(=O)c1ccccc1C2=O` (centres undefined), the GI50 is 1.45 µM and the TGI came out at 2.89 µM.

As for `O=C(CN1CCOCC1)Nc1ccc(Cn2nnc3c2C(=O)c2nnn(Cc4ccc(NC(=O)CN5CCOCC5)cc4)c2C3=O)cc1`, the GI50 is 0.253 µM and the TGI turned out to be 0.624 µM.

As for `O=C(O)Cn1ccc(=O)c2ccc([N+](=O)[O-])cc21`, the TGI is > 100 µM.

Consider `O=C(c1ccco1)c1nc2ccc(C(F)(F)F)cc2[n+]([O-])c1C(F)(F)F`, for which the GI50 is 26.5 µM and the TGI is 99.4 µM.

For the compound `CCCCC/C(C=C(C#N)C#N)=C/c1ccccc1`, the GI50 was 17.2 µM and the TGI is 47.6 µM.

Consider `CC1CCC2(C(=O)O)CCC3(C)C(=CCC4C5(C)CC(O)C(O)C(C)(CO)C5C(O)CC43C)C2C1C` (centres undefined), for which the TGI is > 100 µM.

As for `Cc1ccc(S(=O)(=O)N(CCOc2ccc(/C(N)=N/Cl)cc2)CCOc2ccc(/C(N)=N\Cl)cc2)cc1`, the GI50 was 23.3 µM and the TGI was 90.5 µM.

As for `COc1ccc(C2=NN(C(=O)c3cc(OC)c(OC)c(OC)c3)C(c3ccc(C#N)cc3)C2)cc1OC` (centres undefined), the GI50 was 6.4 µM and the TGI is > 53.2 µM.

The test system of a further assay is UACC-62 melanoma. Briefly: growth of human tumour cells (NCI), 48 h.
For the compound `Cc1ccc(CS/C(=C\c2ccc([N+](=O)[O-])cc2)C(=O)c2ccc(F)cc2)cc1`, the GI50 was 2.46 µM and the TGI worked out at 8.77 µM.

In the case of `CC[CH2][Pb]([CH2]CC)([CH2]CC)[O]C(=O)C(F)(F)F`, the GI50 was 0.116 µM and the TGI is 0.3 µM.

With `CCOC(=O)CCc1cc(=O)oc2cc(O)cc(O)c12`, the TGI is > 100 µM.

For `CNC(=O)OCc1c(COC(=O)NC)c(-c2ccc(Cl)c(Cl)c2)n2c1SCC2`, the TGI turned out to be 8.94 µM.

On to `COc1cc(OC)cc(-c2ccc(-c3ccc(C(=N)N)o3)o2)c1`, for which the GI50 is 1.96 µM and the TGI was 3.98 µM.

Turning to `C[C@]12CC[C@H](O)CC1=CC[C@@H]1[C@@H]2CC[C@]2(C)C(c3cccnc3)=CC[C@@H]12`, the GI50 is 37.4 µM and the TGI was > 100 µM.

On to `Cc1ccc2c(c1)C(=O)/C(=C/c1ncc([N+](=O)[O-])n1C)O2`, for which the GI50 was 1.38 µM and the TGI came out at 3.84 µM.

With `CC1OC(n2cc(F)c(=O)[nH]c2=O)CCC1O` (centres undefined), the TGI is > 100 µM.

Turning to `O=C(NCCOCCOCCNc1cccc2c1C(=O)N(C1CCCNC1=O)C2=O)c1cc2c(o1)C(=O)c1ccccc1C2=O` (centres undefined), the GI50 is 1.37 µM and the TGI is 2.99 µM.

As to `O=C(CN1CCOCC1)Nc1ccc(Cn2nnc3c2C(=O)c2nnn(Cc4ccc(NC(=O)CN5CCOCC5)cc4)c2C3=O)cc1`, the GI50 was 0.463 µM and the TGI amounted to 1.83 µM.

For the compound `O=C(O)Cn1ccc(=O)c2ccc([N+](=O)[O-])cc21`, the TGI is > 100 µM.

For the compound `O=C(c1ccco1)c1nc2ccc(C(F)(F)F)cc2[n+]([O-])c1C(F)(F)F`, the GI50 was 43.1 µM and the TGI was > 100 µM.

As for `CCCCC/C(C=C(C#N)C#N)=C/c1ccccc1`, the GI50 is 2.84 µM and the TGI turned out to be 11.9 µM.

In turn, `CC1CCC2(C(=O)O)CCC3(C)C(=CCC4C5(C)CC(O)C(O)C(C)(CO)C5C(O)CC43C)C2C1C` (centres undefined) had a TGI of 47.5 µM.

On to `Cc1ccc(S(=O)(=O)N(CCOc2ccc(/C(N)=N/Cl)cc2)CCOc2ccc(/C(N)=N\Cl)cc2)cc1`, for which the GI50 is 19 µM and the TGI was 64.5 µM.

For the compound `COc1ccc(C2=NN(C(=O)c3cc(OC)c(OC)c(OC)c3)C(c3ccc(C#N)cc3)C2)cc1OC` (centres undefined), the GI50 is 0.737 µM and the TGI was > 53.1 µM.
